From US10611740B2, “Aryl dihydro-2H-benzo[b][1,4]oxazine sulfonamide and related compounds for use as agonists of RORγ and the treatment of disease” (Lycera Corporation, priority 2015, dated 2020)

Biological target: T1, RORγ-LBD (Homo sapiens, UniProt P51449)
T1 construct: made in house; host or cells: SF9 cells (baculovirus)
T1 sequence (P51449 269-508 limits assumed): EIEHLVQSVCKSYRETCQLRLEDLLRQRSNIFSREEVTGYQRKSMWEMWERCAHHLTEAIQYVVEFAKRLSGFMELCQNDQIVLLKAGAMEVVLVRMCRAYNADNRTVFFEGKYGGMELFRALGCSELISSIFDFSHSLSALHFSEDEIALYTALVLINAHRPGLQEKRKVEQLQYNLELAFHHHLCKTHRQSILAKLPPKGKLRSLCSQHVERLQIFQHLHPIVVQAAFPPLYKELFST
Assay: RORγ-Ligand Binding Domain (LBD) TR-FRET Assay;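 for TR-FRET Assay Max Response: 665/615 nm ratio relative to signal without ursolic acid or compound set at 100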
Assay type: biochemical
Method: Assay procedures and results are described below.
HIS-tagged RORγ-LBD protein was expressed in SF9 cells using a baculovirus expression system. The lysate was diluted in assay buffer (50 mM Tris pH 7.0, 50 mM KCl, 1 mM EDTA, 0.1 mM DTT, 0.01% BSA) to obtain RORγ-LBD final concentration of ˜3 nM in a 384-well assay plate (need to titrate for each batch of protein).
A stock of biotinylated-LXXLL peptide from coactivator SRC1 (Biotin-[…]) was prepared in assay buffer and added to each well (200 nM final concentration). […] RORγ antagonist ursolic acid was also included at a final concentration of 2 μM. Compounds were diluted in DMSO and further diluted in assay buffer with a final DMSO concentration at 1%.

| SMILES | EC50 [nM] | TR-FRET Assay Max Response |
| --- | --- | --- |
| Cn1cc(C(=O)NC[C@H]2CN(S(=O)(=O)c3cccc(C(F)(F)F)c3)c3cc(-c4cc(F)cc(OC(F)F)c4)ccc3O2)c(C(F)(F)F)n1 [Compound 30CZ, (S)-N-((6-(3-(difluoromethoxy)-5-fluorophenyl)-4-((3-(trifluoro-methyl)phenyl)sulfonyl)-3,4-dihydro-2H-benzo[b][1,4]-oxazin-2-yl)methyl)-1-methyl-3-(trifluoromethyl)-1H-pyrazole-4-carboxamide] | < 500 | *** (The symbol “***” indicates a value in the range of greater than 150 to 200) |
| O=C(NC[C@H]1CN(S(=O)(=O)c2cccc(C(F)(F)F)c2)c2cc(-c3cc(F)cc(OC(F)F)c3)ccc2O1)c1ccn[nH]1 [Compound 30DB, (S)-N-((6-(3-(difluoromethoxy)-5-fluorophenyl)-4-((3-(trifluoromethyl)phenyl)sulfonyl)-3,4-dihydro-2H-benzo[b][1,4]oxazin-2-yl)methyl)-1H-pyrazole-5-carboxamide] | < 500 | *** (The symbol “***” indicates a value in the range of greater than 150 to 200) |
| CC(C)(C[C@@H]1CN(S(=O)(=O)c2cccc(C(F)(F)F)c2)c2cc(-c3cc(F)ccc3F)ccc2O1)NC(=O)C(C)(C)O [Compound 30DD, (R)-N-(1-(6-(2,5-difluoro-phenyl)-4-((3-(trifluoromethyl)-phenyl)sulfonyl)-3,4-dihydro-2H-benzo[b][1,4]oxazin-2-yl)-2-methylpropan-2-yl)-2-hydroxy-2-methylpropanamide] | < 500 | *** (The symbol “***” indicates a value in the range of greater than 150 to 200) |
| CC(C)(C[C@@H]1CN(S(=O)(=O)c2cccc(C(F)(F)F)c2)c2cc(-c3cc(F)ccc3F)ccc2O1)NS(C)(=O)=O [Compound 30DF, (R)-N-(1-(6-(2,5-difluoro-phenyl)-4-((3-(trifluoromethyl)-phenyl)sulfonyl)-3,4-dihydro-2H-benzo[b][1,4]oxazin-2-yl)-2-methylpropan-2-yl)methane-sulfonamide] | < 500 | *** (The symbol “***” indicates a value in the range of greater than 150 to 200) |
| CC(C)(C[C@H]1CN(S(=O)(=O)c2cccc(C(F)(F)F)c2)c2cc(-c3cccc(OC(F)F)n3)ccc2O1)C(=O)O [Compound 32AM, (S)-3-(6-(6-(difluoromethoxy)-pyridin-2-yl)-4-((3-(trifluoro-methyl)phenyl)sulfonyl)-3,4-dihydro-2H-benzo[b][1,4]oxazin-2-yl)-2,2-dimethylpropanoic acid] | < 500 | * (The symbol “*” indicates a value in the range of 25 to 90) |
| O=C(O)C1(C[C@@H]2CN(S(=O)(=O)c3cccc(C(F)(F)F)c3)c3cc(-c4cc(F)cc(F)c4)ccc3O2)CCC1 [Compound 32AP, (R)-1-((6-(3,5-difluorophenyl)-4-((3-(trifluoromethyl)phenyl)-sulfonyl)-3,4-dihydro-2H-benzo[b][1,4]oxazin-2-yl)methyl)cyclobutane-1-carboxylic acid] | < 500 | ** (The symbol “**” indicates a value in the range of greater than 90 to 150) |
| O=C(O)C1(C[C@@H]2CN(S(=O)(=O)c3cccc(C(F)(F)F)c3)c3cc(-c4cc(F)ccc4F)ccc3O2)CCC1 [Compound 32AQ, (R)-1-((6-(2,5-difluorophenyl)-4-((3-(trifluoromethyl)phenyl)-sulfonyl)-3,4-dihydro-2H-benzo[b][1,4]oxazin-2-yl)methyl)cyclobutane-1-carboxylic acid] | 500 to 5000 | ** (The symbol “**” indicates a value in the range of greater than 90 to 150) |
| CC(C)(C[C@H]1CN(S(=O)(=O)c2cccc(C(F)(F)F)c2)c2cc(-c3c(F)cccc3C(F)(F)F)ccc2O1)C(=O)O [Compound 32AY, (S)-3-(6-(2-fluoro-6-(trifluoro-methyl)phenyl)-4-((3-(trifluoro-methyl)phenyl)sulfonyl)-3,4-dihydro-2H-benzo[b][1,4]oxazin-2-yl)-2,2-dimethylpropanoic acid] | < 500 | ** (The symbol “**” indicates a value in the range of greater than 90 to 150) |
| CC(C)(C[C@H]1CN(S(=O)(=O)c2cccc(C(F)(F)F)c2)c2cc(-c3cc(F)cc(F)c3Cl)ccc2O1)C(=O)O [Compound 32U, (S)-3-(6-(2-chloro-3,5-difluoro-phenyl)-4-((3-(trifluoromethyl)-phenyl)sulfonyl)-3,4-dihydro-2H-benzo[b][1,4]oxazin-2-yl)-2,2-dimethylpropanoic acid] | < 500 | *** (The symbol “***” indicates a value in the range of greater than 150 to 200) |
| C[C@H](C[C@H]1CN(S(=O)(=O)c2cccc(C(F)(F)F)c2)c2cc(-c3cc(F)cc(F)c3Cl)cc(F)c2O1)C(=O)O [Compound 46H, (R)-3-((S)-6-(2-chloro-3,5-difluorophenyl)-8-fluoro-4-((3-(trifluoromethyl)phenyl)sulfonyl)-3,4-dihydro-2H-benzo[b][1,4]-oxazin-2-yl)-2-methylpropanoic acid] | < 500 | *** (The symbol “***” indicates a value in the range of greater than 150 to 200) |
| C[C@@H](C[C@H]1CN(S(=O)(=O)c2cccc(C(F)(F)F)c2)c2cc(-c3cc(F)cc(F)c3Cl)cc(F)c2O1)C(=O)O [Compound 46I, (S)-3-((S)-6-(2-chloro-3,5-difluorophenyl)-8-fluoro-4-((3-(trifluoromethyl)phenyl)sulfonyl)-3,4-dihydro-2H-benzo[b][1,4]-oxazin-2-yl)-2-methylpropanoic acid] | < 500 | *** (The symbol “***” indicates a value in the range of greater than 150 to 200) |
| C[C@H](C[C@H]1CN(S(=O)(=O)c2cccc(C(F)(F)F)c2)c2cc(-c3cc(F)cc(F)c3)ccc2O1)C(=O)O [Compound 46J, (R)-3-((S)-6-(3,5-difluorophenyl)-4-((3-(trifluoromethyl)phenyl)-sulfonyl)-3,4-dihydro-2H-benzo[b][1,4]oxazin-2-yl)-2-methylpropanoic acid] | < 500 | *** (The symbol “***” indicates a value in the range of greater than 150 to 200) |
| C[C@H](C[C@H]1CN(S(=O)(=O)c2cccc(C(F)(F)F)c2)c2cc(-c3cccc(C(F)(F)F)c3)ccc2O1)C(=O)O [Compound 46K, (R)-2-methyl-3-((S)-6-(3-(trifluoromethyl)phenyl)-4-((3-(trifluoromethyl)phenyl)sulfonyl)-3,4-dihydro-2H-benzo[b][1,4]-oxazin-2-yl)propanoic acid] | < 500 | *** (The symbol “***” indicates a value in the range of greater than 150 to 200) |
| C[C@@H](C[C@H]1CN(S(=O)(=O)c2cccc(C(F)(F)F)c2)c2cc(-c3cccc(C(F)(F)F)c3)ccc2O1)C(=O)O [Compound 46L, (S)-2-methyl-3-((S)-6-(3-(trifluoromethyl)phenyl)-4-((3-(trifluoromethyl)phenyl)sulfonyl)-3,4-dihydro-2H-benzo[b][1,4]-oxazin-2-yl)propanoic acid] | < 500 |  |
| C[C@H](C[C@H]1CN(S(=O)(=O)c2cccc(C(F)(F)F)c2)c2cc(-c3cc(F)cc(F)c3Cl)ccc2O1)C(=O)O [Compound 46M, (R)-3-((S)-6-(2-chloro-3,5-difluorophenyl)-4-((3-(trifluoromethyl)phenyl)sulfonyl)-3,4-dihydro-2H-benzo[b][1,4]oxazin-2-yl)-2-methylpropanoic acid] | < 500 | *** (The symbol “***” indicates a value in the range of greater than 150 to 200) |
| C[C@H](C[C@H]1CN(S(=O)(=O)c2cccc(C(F)(F)F)c2)c2cc(-c3cc(F)cc(OC(F)F)c3)ccc2O1)C(=O)O [Compound 46O, (R)-3-((S)-6-(3-(difluoro-methoxy)-5-fluorophenyl)-4-((3-(trifluoromethyl)phenyl)sulfonyl)-3,4-dihydro-2H-benzo[b][1,4]-oxazin-2-yl)-2-methylpropanoic acid] | < 500 | *** (The symbol “***” indicates a value in the range of greater than 150 to 200) |
| C[C@@H](C[C@H]1CN(S(=O)(=O)c2cccc(C(F)(F)F)c2)c2cc(-c3cc(F)cc(OC(F)F)c3)ccc2O1)C(=O)O [Compound 46P, (S)-3-((S)-6-(3-(difluoro-methoxy)-5-fluorophenyl)-4-((3-(trifluoromethyl)phenyl)sulfonyl)-3,4-dihydro-2H-benzo[b][1,4]-oxazin-2-yl)-2-methylpropanoic acid] | < 500 | *** (The symbol “***” indicates a value in the range of greater than 150 to 200) |
| C[C@H](C[C@H]1CN(S(=O)(=O)c2cccc(C(F)(F)F)c2)c2cc(-c3cc(Cl)cc(OC(F)F)c3)ccc2O1)C(=O)O [Compound 46Q, (R)-3-((S)-6-(3-chloro-5-(difluoromethoxy)phenyl)-4-((3-(trifluoromethyl)phenyl)sulfonyl)-3,4-dihydro-2H-benzo[b][1,4]-oxazin-2-yl)-2-methylpropanoic acid] | < 500 | *** (The symbol “***” indicates a value in the range of greater than 150 to 200) |
